Reference: publication PMC3601177 (Oncoimmunology, 2013)
Where a name gives a salt, the structure may show the parent alone.

Columns and labels:
[1] = Pharmacokinetics of IM and CGP74588 in patient plasma; type: in vivo, human; details: for increase of AUC (0–24 h) at D14 versus D10 / increase of Cmax at D14 versus D10: after IL-2 co-administration D10-D14, IM 400 mg/day; for AUC(0-inf): human, plasma
[2] = system: lymphocytes, neutrophils and platelets; experiment: Blood cell counts during treatment; type: in vivo, human; details: between D1 and D10, IM alone
[3] = system: GIST with KIT exon 11 mutations; details: cited from earlier work

accumulation ratio (D10 to D1 trough concentration ratio) ([1]; IM 400 mg/day, mean ± SD) | increase of AUC (0–24 h) at D14 versus D10 [1] | increase of Cmax at D14 versus D10 [1] | AUC (0–24h) ([1]; patient #10, IL-2 dose level III, grade 3 systemic capillary leak syndrome) | AUC(0-inf) ([1]; im, 400 mg/day) | AUC(0-inf) ([1]; oral, 400 mg) | lymphocyte, neutrophil or platelet counts [2] | Structure (SMILES) | AUC (0–24h) ([1]; patient #8, IL-2 dose level III, no toxicity) | median OS [3] | median time to progression [3]
1.93 ± 0.69 | 61% | 49% | 25.1 µg·h/mL | – | – | – | Cc1ccc(NC(=O)c2ccc(CN3CCNCC3)cc2)cc1Nc1nccc(-c2cccnc2)n1 [CGP74588, N-desmethyl-imatinib] | 13.4 µg·h/mL | – | –
– | 61% | 49% | – | 64100 ng·h/mL | 39700 ng·h/mL | no significant modifications | Cc1ccc(NC(=O)c2ccc(CN3CCN(C)CC3)cc2)cc1Nc1nccc(-c2cccnc2)n1 [IM, imatinib mesylate] | – | 60 mo | 27.2 mo
